From PubChem BioAssay (NCI)
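Results reflect a 48-hour exposure of cells in 96-well plates to compound at five concentrations. Definition used: TGI = concentration required for complete inhibition of growth.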

What was measured:
Assay in all cases: NCI tumour cell line growth inhibition, 48 h
HOP-92 NSCLC = test system: HOP-92 NSCLC
SNB-78 CNS = test system: SNB-78 CNS
SF-295 CNS = test system: SF-295 CNS
ACHN renal = test system: ACHN renal
M19-MEL melanoma = test system: M19-MEL melanoma
CAKI-1 renal = test system: CAKI-1 renal
DMS 114 small cell lung = test system: DMS 114 small cell lung
SNB-19 CNS = test system: SNB-19 CNS
SK-MEL-28 melanoma = test system: SK-MEL-28 melanoma
SF-539 CNS = test system: SF-539 CNS
MALME-3M melanoma = test system: MALME-3M melanoma
RPMI-8226 leukemia = test system: RPMI-8226 leukemia
KM20L2 colon = test system: KM20L2 colon
SNB-75 CNS = test system: SNB-75 CNS
EKVX NSCLC = test system: EKVX NSCLC
A549 NSCLC = test system: A549 NSCLC
HT29 colon = test system: HT29 colon
DMS 273 small cell lung = test system: DMS 273 small cell lung
SK-OV-3 ovarian = test system: SK-OV-3 ovarian
UACC-62 melanoma = test system: UACC-62 melanoma
LXFL 529 NSCLC = test system: LXFL 529 NSCLC
OVCAR-4 ovarian = test system: OVCAR-4 ovarian
SK-MEL-2 melanoma = test system: SK-MEL-2 melanoma
NCI-H226 lung = test system: NCI-H226 lung
NCI-H460 lung = test system: NCI-H460 lung
RXF-631 renal = test system: RXF-631 renal
UO-31 renal = test system: UO-31 renal
A498 renal = test system: A498 renal
MOLT-4 leukemia = test system: MOLT-4 leukemia
TK-10 renal = test system: TK-10 renal
K-562 leukemia = test system: K-562 leukemia
UACC-257 melanoma = test system: UACC-257 melanoma
HL-60(TB) leukemia = test system: HL-60(TB) leukemia
NCI-H522 lung = test system: NCI-H522 lung
SK-MEL-5 melanoma = test system: SK-MEL-5 melanoma
NCI-H23 lung = test system: NCI-H23 lung
HOP-18 NSCLC = test system: HOP-18 NSCLC
KM12 colon = test system: KM12 colon
XF 498 CNS = test system: XF 498 CNS
M14 melanoma = test system: M14 melanoma
HOP-62 NSCLC = test system: HOP-62 NSCLC
LOX IMVI melanoma = test system: LOX IMVI melanoma
SN12C renal = test system: SN12C renal
OVCAR-5 ovarian = test system: OVCAR-5 ovarian
DLD-1 colon = test system: DLD-1 colon
OVCAR-8 ovarian = test system: OVCAR-8 ovarian
HCT-15 colon = test system: HCT-15 colon
SW-620 colon = test system: SW-620 colon
IGROV1 ovarian = test system: IGROV1 ovarian
HCT-116 colon = test system: HCT-116 colon
U251 CNS = test system: U251 CNS
SF-268 CNS = test system: SF-268 CNS
RXF 393 renal = test system: RXF 393 renal
COLO 205 colon = test system: COLO 205 colon
CCRF-CEM leukemia = test system: CCRF-CEM leukemia
786-0 renal = test system: 786-0 renal
OVCAR-3 ovarian = test system: OVCAR-3 ovarian
SN12K1 renal = test system: SN12K1 renal
HCC-2998 colon = test system: HCC-2998 colon
P388 leukemia = test system: P388 leukemia
MCF7 breast = test system: MCF7 breast
NCI/ADR-RES ovarian = test system: NCI/ADR-RES ovarian
P388/ADR leukemia = test system: P388/ADR leukemia

Measured: TGI

O=c1[nH]cc(COCCO)c(=O)[nH]1
> 100 µM: HOP-92 NSCLC | SNB-78 CNS | SF-295 CNS | ACHN renal | M19-MEL melanoma | CAKI-1 renal | DMS 114 small cell lung | SNB-19 CNS | SK-MEL-28 melanoma | SF-539 CNS | MALME-3M melanoma | RPMI-8226 leukemia | KM20L2 colon | SNB-75 CNS | EKVX NSCLC | A549 NSCLC | HT29 colon | DMS 273 small cell lung | SK-OV-3 ovarian | UACC-62 melanoma | LXFL 529 NSCLC | OVCAR-4 ovarian | SK-MEL-2 melanoma | NCI-H226 lung | NCI-H460 lung | RXF-631 renal | UO-31 renal | A498 renal | MOLT-4 leukemia | TK-10 renal | K-562 leukemia | UACC-257 melanoma | HL-60(TB) leukemia | NCI-H522 lung | SK-MEL-5 melanoma | NCI-H23 lung | HOP-18 NSCLC | KM12 colon | XF 498 CNS | M14 melanoma | HOP-62 NSCLC | LOX IMVI melanoma | SN12C renal | OVCAR-5 ovarian | DLD-1 colon | OVCAR-8 ovarian | HCT-15 colon | SW-620 colon | IGROV1 ovarian | HCT-116 colon | U251 CNS | SF-268 CNS | RXF 393 renal | COLO 205 colon | CCRF-CEM leukemia | 786-0 renal | OVCAR-3 ovarian

CCCC(O)C(NC(=O)CCl)C(=O)O (centres undefined)
> 100 µM: HOP-92 NSCLC | SNB-78 CNS | SN12K1 renal | SF-295 CNS | M19-MEL melanoma | CAKI-1 renal | DMS 114 small cell lung | SNB-19 CNS | SK-MEL-28 melanoma | SF-539 CNS | MALME-3M melanoma | RPMI-8226 leukemia | KM20L2 colon | HCC-2998 colon | SNB-75 CNS | P388 leukemia | EKVX NSCLC | A549 NSCLC | HT29 colon | DMS 273 small cell lung | SK-OV-3 ovarian | UACC-62 melanoma | OVCAR-4 ovarian | SK-MEL-2 melanoma | NCI-H226 lung | NCI-H460 lung | UO-31 renal | A498 renal | MOLT-4 leukemia | K-562 leukemia | UACC-257 melanoma | HL-60(TB) leukemia | NCI-H522 lung | SK-MEL-5 melanoma | NCI-H23 lung | HOP-18 NSCLC | MCF7 breast | KM12 colon | XF 498 CNS | HOP-62 NSCLC | LOX IMVI melanoma | SN12C renal | OVCAR-5 ovarian | DLD-1 colon | OVCAR-8 ovarian | HCT-15 colon | SW-620 colon | IGROV1 ovarian | HCT-116 colon | U251 CNS | SF-268 CNS | RXF 393 renal | NCI/ADR-RES ovarian | COLO 205 colon | CCRF-CEM leukemia | OVCAR-3 ovarian | P388/ADR leukemia
